Target: T1, Bcl-2 protein (Recombinant Human Bcl-2 Protein) (Homo sapiens, UniProt P10415)
T1 construct: purchased Novus Biologicals NBP2-34889
Assay: AS-MS evaluation of binding of the Example 4 mixture library (1200 compounds/well) to Bcl-2, ASMS ratio (%)
Details: mixture library, value belongs to the MS peak assigned to the compound; for ASMS ratio (%) n = 1: replicate n = 1; for ASMS ratio (%) n = 2: replicate n = 2
Summary of the method: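 Affinity-selection MS: after spin-column size exclusion and organic extraction, LC/MS signals give an ASMS ratio (%), referenced to protein-free samples with and without column treatment. Binding step combined 20 μM human Bcl-2 with the 1200-compound pool at 20 nM per compound, 1 h, 23° C., dark, pH 7.4 Tris-HCl/NaCl/Tween-20/DTT.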

T1 sequence (P10415 whole entry): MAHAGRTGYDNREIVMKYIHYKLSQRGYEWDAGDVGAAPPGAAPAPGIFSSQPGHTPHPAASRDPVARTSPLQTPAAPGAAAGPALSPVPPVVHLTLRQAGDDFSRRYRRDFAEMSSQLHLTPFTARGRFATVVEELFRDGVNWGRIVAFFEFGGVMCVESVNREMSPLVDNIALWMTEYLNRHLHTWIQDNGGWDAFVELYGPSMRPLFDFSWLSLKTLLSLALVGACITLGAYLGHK

| ASMS ratio (%) n = 1 [%] | ASMS ratio (%) n = 2 [%] | Structure (SMILES) |
| --- | --- | --- |
| 0.3 | 0.5 | CCOc1cncc(-c2ccc(C(=O)N3CCN(c4ccc(C(=O)NS(=O)(=O)C(C)(C)C)nn4)CC3)c3ccccc23)c1 [Compound B2L014-01, N-tert-Butylsulfonyl-6-[4-[4-(5-ethoxypyridin-3-yl)naphthalene-1-carbonyl]piperazin-1-yl]pyridazine-3-carboxamide] |
| 0.0 | 0.0 | CCOc1cccc(-c2cc(C(=O)N3CCN(c4ccc(C(=O)NS(=O)(=O)C(C)(C)C)nn4)CC3)cc(C(C)(C)C)c2)c1 [Compound B2L015-01, 6-[4-[3-tert-Butyl-5-(3-ethoxyphenyl)benzoyl]piperazin-1-yl]-N-tert-butylsulfonylpyridazine-3-carboxamide] |
| 0.0 | −5.4 | CCOc1cncc(-c2cc(C(=O)N3CCN(c4ccc(C(=O)NS(=O)(=O)C(C)(C)C)nn4)CC3)cc(C(C)(C)C)c2)c1 [Compound B2L016-01, 6-[4-[3-tert-Butyl-5-(5-ethoxypyridin-3-yl)benzoyl]piperazin-1-yl]-N-tert-butylsulfonylpyridazine-3-carboxamide] |
| 0.0 | 0.0 | CCOc1cccc(-c2cc(C(=O)N3CCN(c4ccc(C(=O)NS(=O)(=O)C(C)(C)C)nn4)CC3)cc(C(F)(F)F)c2)c1 [Compound B2L017-01, N-tert-Butylsulfonyl-6-[4-[3-(3-ethoxyphenyl)-5-(trifluoromethyl)benzoyl]piperazin-1-yl]pyridazine-3-carboxamide] |
| −1.9 | −2.5 | CCOc1cncc(-c2cc(C(=O)N3CCN(c4ccc(C(=O)NS(=O)(=O)C(C)(C)C)nn4)CC3)cc(C(F)(F)F)c2)c1 [Compound B2L018-01, N-tert-Butylsulfonyl-6-[4-[3-(5-ethoxypyridin-3-yl)-5-(trifluoromethyl)benzoyl]piperazin-1-yl]pyridazine-3-carboxamide] |
| 0.0 | 0.0 | CCOc1cncc(C#Cc2cc(C(=O)N3CCN(c4ccc(C(=O)NS(=O)(=O)C(C)(C)C)nn4)CC3)cc(C(F)(F)F)c2)c1 [Compound B2L020-01, N-tert-Butylsulfonyl-6-[4-[3-[2-(5-ethoxypyridin-3-yl)ethynyl]-5-(trifluoromethyl)benzoyl]piperazin-1-yl]pyridazine-3-carboxamide] |
| 0.0 | −14.9 | CCOc1cccc(-c2cnn(-c3cc(C(=O)N4CCN(c5ccc(C(=O)NS(=O)(=O)C(C)(C)C)nn5)CC4)cc(C(F)(F)F)c3)c2)c1 [Compound B2L021-01, N-tert-Butylsulfonyl-6-[4-[3-[4-(3-ethoxyphenyl)pyrazol-1-yl]-5-(trifluoromethyl)benzoyl]piperazin-1-yl]pyridazine-3-carboxamide] |
| 0.0 | 0.0 | CCOc1cncc(-c2cnn(-c3cc(C(=O)N4CCN(c5ccc(C(=O)NS(=O)(=O)C(C)(C)C)nn5)CC4)cc(C(F)(F)F)c3)c2)c1 [Compound B2L022-01, N-tert-Butylsulfonyl-6-[4-[3-[4-(5-ethoxypyridin-3-yl)pyrazol-1-yl]-5-(trifluoromethyl)benzoyl]piperazin-1-yl]pyridazine-3-carboxamide] |
| 0.0 | 0.0 | CCOc1cccc(-c2csc(C(=O)N3CCN(c4ccc(C(=O)NS(=O)(=O)C(C)(C)C)cc4)CC3)c2)c1 [Compound B2L023-01, N-tert-Butylsulfonyl-4-[4-[4-(3-ethoxyphenyl)thiophene-2-carbonyl]piperazin-1-yl]benzamide] |
| 0.0 | 0.0 | CCOc1cncc(-c2csc(C(=O)N3CCN(c4ccc(C(=O)NS(=O)(=O)C(C)(C)C)cc4)CC3)c2)c1 [Compound B2L024-01, N-tert-Butylsulfonyl-4-[4-[4-(5-ethoxypyridin-3-yl)thiophene-2-carbonyl]piperazin-1-yl]benzamide] |
| 0.0 | 0.0 | CCOc1cccc(-c2ccc(C(=O)N3CCN(c4ccc(C(=O)NS(=O)(=O)C(C)(C)C)cc4)CC3)cc2C)c1 [Compound B2L025-01, N-tert-Butylsulfonyl-4-[4-[4-(3-ethoxyphenyl)-3-methylbenzoyl]piperazin-1-yl]benzamide] |
| 0.0 | 0.0 | CCOc1cncc(-c2ccc(C(=O)N3CCN(c4ccc(C(=O)NS(=O)(=O)C(C)(C)C)cc4)CC3)cc2C)c1 [Compound B2L026-01, N-tert-Butylsulfonyl-4-[4-[4-(5-ethoxypyridin-3-yl)-3-methylbenzoyl]piperazin-1-yl]benzamide] |
| 0.0 | 0.0 | CCOc1cccc(-c2ccc(C(=O)N3CCN(c4ccc(C(=O)NS(=O)(=O)C(C)(C)C)cc4)CC3)cc2F)c1 [Compound B2L027-01, N-tert-Butylsulfonyl-4-[4-[4-(3-ethoxyphenyl)-3-fluorobenzoyl]piperazin-1-yl]benzamide] |
| 0.0 | 0.0 | CCOc1cncc(-c2ccc(C(=O)N3CCN(c4ccc(C(=O)NS(=O)(=O)C(C)(C)C)cc4)CC3)cc2F)c1 [Compound B2L028-01, N-tert-Butylsulfonyl-4-[4-[4-(5-ethoxypyridin-3-yl)-3-fluorobenzoyl]piperazin-1-yl]benzamide] |
| 0.0 |  | CCOc1cccc(C#Cc2ccccc2C(=O)N2CCN(c3ccc(C(=O)NS(=O)(=O)C(C)(C)C)cc3)CC2)c1 [Compound B2L029-01, N-tert-Butylsulfonyl-4-[4-[2-[2-(3-ethoxyphenyl)ethynyl]benzoyl]piperazin-1-yl]benzamide] |
| 0.0 | 0.0 | CCOc1cncc(C#Cc2ccccc2C(=O)N2CCN(c3ccc(C(=O)NS(=O)(=O)C(C)(C)C)cc3)CC2)c1 [Compound B2L030-01, N-tert-Butylsulfonyl-4-[4-[2-[2-(5-ethoxypyridin-3-yl)ethynyl]benzoyl]piperazin-1-yl]benzamide] |
| 0.0 | 0.0 | CCOc1cccc(C#Cc2cncc(C(=O)N3CCN(c4ccc(C(=O)NS(=O)(=O)C(C)(C)C)cc4)CC3)c2)c1 [Compound B2L031-01, N-tert-Butylsulfonyl-4-[4-[5-[2-(3-ethoxyphenyl)ethynyl]pyridine-3-carbonyl]piperazin-1-yl]benzamide] |
| 0.0 | −1.0 | CCOc1cncc(C#Cc2cncc(C(=O)N3CCN(c4ccc(C(=O)NS(=O)(=O)C(C)(C)C)cc4)CC3)c2)c1 [Compound B2L032-01, N-tert-Butylsulfonyl-4-[4-[5-[2-(5-ethoxypyridin-3-yl)ethynyl]pyridine-3-carbonyl]piperazin-1-yl]benzamide] |
| 0.0 | 0.0 | CCOc1cccc(-c2ccccc2CCC(=O)N2CCN(c3ccc(C(=O)NS(=O)(=O)C(C)(C)C)cc3)CC2)c1 [Compound B2L033-01, N-tert-Butylsulfonyl-4-[4-[3-[2-(3-ethoxyphenyl)phenyl]propanoyl]piperazin-1-yl]benzamide] |
| 1.6 | 3.5 | CCOc1cncc(-c2ccccc2CCC(=O)N2CCN(c3ccc(C(=O)NS(=O)(=O)C(C)(C)C)cc3)CC2)c1 [Compound B2L034-01, N-tert-Butylsulfonyl-4-[4-[3-[2-(5-ethoxypyridin-3-yl)phenyl]propanoyl]piperazin-1-yl]benzamide] |
| 0.0 |  | CCOc1cccc(-c2ccc(C(=O)N3CCN(c4ccc(C(=O)NS(=O)(=O)C(C)(C)C)cc4)CC3)c3ccccc23)c1 [Compound B2L035-01, N-tert-Butylsulfonyl-4-[4-[4-(3-ethoxyphenyl)naphthalene-1-carbonyl]piperazin-1-yl]benzamide] |
| 0.0 | 0.0 | CCOc1cncc(-c2ccc(C(=O)N3CCN(c4ccc(C(=O)NS(=O)(=O)C(C)(C)C)cc4)CC3)c3ccccc23)c1 [Compound B2L036-01, N-tert-Butylsulfonyl-4-[4-[4-(5-ethoxypyridin-3-yl)naphthalene-1-carbonyl]piperazin-1-yl]benzamide] |
| 0.0 | 0.0 | CCOc1cccc(-c2cc(C(=O)N3CCN(c4ccc(C(=O)NS(=O)(=O)C(C)(C)C)cc4)CC3)cc(C(C)(C)C)c2)c1 [Compound B2L037-01, 4-[4-[3-tert-Butyl-5-(3-ethoxyphenyl)benzoyl]piperazin-1-yl]-N-tert-butylsulfonylbenzamide] |
| 0.0 | 0.0 | CCOc1cncc(-c2cc(C(=O)N3CCN(c4ccc(C(=O)NS(=O)(=O)C(C)(C)C)cc4)CC3)cc(C(C)(C)C)c2)c1 [Compound B2L038-01, 4-[4-[3-tert-Butyl-5-(5-ethoxypyridin-3-yl)benzoyl]piperazin-1-yl]-N-tert-butylsulfonylbenzamide] |
| 0.0 | 0.0 | CCOc1cccc(-c2cc(C(=O)N3CCN(c4ccc(C(=O)NS(=O)(=O)C(C)(C)C)cc4)CC3)cc(C(F)(F)F)c2)c1 [Compound B2L039-01, N-tert-Butylsulfonyl-4-[4-[3-(3-ethoxyphenyl)-5-(trifluoromethyl)benzoyl]piperazin-1-yl]benzamide] |
| −0.2 | 1.0 | CCOc1cncc(-c2cc(C(=O)N3CCN(c4ccc(C(=O)NS(=O)(=O)C(C)(C)C)cc4)CC3)cc(C(F)(F)F)c2)c1 [Compound B2L040-01, N-tert-Butylsulfonyl-4-[4-[3-(5-ethoxypyridin-3-yl)-5-(trifluoromethyl)benzoyl]piperazin-1-yl]benzamide] |

— patent US20250154686A1, “COMPOUND LIBRARY” (CHUGAI SEIYAKU KABUSHIKI KAISHA, priority 2021, published 2025)
